From article PMC12136037, “Type II kinase inhibitors that target Parkinson’s disease–associated LRRK2” (Science Advances, 2025) come the findings set out here.

The structures appear in SMILES notation. Several values for one entry are separate records, joined by “and”; a condition that tells them apart may be missing. Equal entries are not always repeated.

For this assay, the target named is T1, LRRK2^RCKW (Homo sapiens, UniProt Q5S007).
T1 construct: LRRK2 R1327 to E2527; His6-Z-tag (TEV cleavable) (N, cleaved yes); host or cells: Sf9 insect cells (baculovirus)
T1 sequence (Q5S007 1327-2527): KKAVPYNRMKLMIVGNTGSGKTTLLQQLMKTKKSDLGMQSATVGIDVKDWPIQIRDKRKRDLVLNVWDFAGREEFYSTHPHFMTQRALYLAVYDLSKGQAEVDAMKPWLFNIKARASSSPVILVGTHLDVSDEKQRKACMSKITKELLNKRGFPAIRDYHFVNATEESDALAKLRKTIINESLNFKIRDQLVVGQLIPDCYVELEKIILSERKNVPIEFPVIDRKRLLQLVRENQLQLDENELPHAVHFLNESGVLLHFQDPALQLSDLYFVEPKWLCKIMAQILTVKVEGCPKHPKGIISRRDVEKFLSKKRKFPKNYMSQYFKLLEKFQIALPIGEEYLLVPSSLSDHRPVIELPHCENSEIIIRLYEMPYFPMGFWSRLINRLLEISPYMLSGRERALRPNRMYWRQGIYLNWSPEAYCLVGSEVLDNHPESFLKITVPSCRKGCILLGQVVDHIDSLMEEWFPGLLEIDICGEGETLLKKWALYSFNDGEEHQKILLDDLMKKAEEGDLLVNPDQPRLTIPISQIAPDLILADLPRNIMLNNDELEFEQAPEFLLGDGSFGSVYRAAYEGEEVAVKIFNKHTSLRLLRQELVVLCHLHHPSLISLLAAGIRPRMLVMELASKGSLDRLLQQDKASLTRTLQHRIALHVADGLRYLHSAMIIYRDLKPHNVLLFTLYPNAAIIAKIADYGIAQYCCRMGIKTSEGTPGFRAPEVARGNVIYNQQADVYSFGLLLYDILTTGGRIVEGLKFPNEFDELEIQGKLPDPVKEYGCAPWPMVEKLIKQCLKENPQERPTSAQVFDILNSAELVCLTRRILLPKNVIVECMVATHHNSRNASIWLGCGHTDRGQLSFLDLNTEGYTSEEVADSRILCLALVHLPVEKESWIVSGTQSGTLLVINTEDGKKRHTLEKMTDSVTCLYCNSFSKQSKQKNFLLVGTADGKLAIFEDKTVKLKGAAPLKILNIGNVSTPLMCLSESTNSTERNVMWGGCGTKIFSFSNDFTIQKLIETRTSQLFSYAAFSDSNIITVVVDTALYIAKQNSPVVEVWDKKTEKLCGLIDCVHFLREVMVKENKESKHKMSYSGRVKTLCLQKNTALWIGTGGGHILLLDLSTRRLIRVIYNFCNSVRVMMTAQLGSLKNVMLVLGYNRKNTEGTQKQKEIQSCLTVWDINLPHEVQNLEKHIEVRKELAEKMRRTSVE
As to the kind of experiment: Single-molecule in vitro kinesin motility assay (TIRF) in the presence of LRRK2^RCKW. It counts as biochemical. The note with it: for Raw data per microtubule (Figure 6c/6e, kinesin motility): individual microtubule values; for Mean each experiment (Figure 6c/6e raw data, kinesin motility): mean of each independent experiment; for rescue of kinesin motility in the presence of LRRK2^RCKW: MLi-2 5 μM, Ponatinib, RN277, RN341 10 μM. As to the method: The excitation and emission paths were filtered using appropriate single band-pass filter cubes (Chroma). […] Illumination and image acquisition was controlled by NIS Elements Advanced Research software (Nikon; www.microscope.healthcare.nikon.com/products/software/nis-elements/nis-elements-advanced-research, RRID:SCR_014329).
Single-molecule total internal reflection fluorescence (TIRF) motility experiments were performed in flow chambers using the microscopy setup described above. Flow chambers were made by adhering 1^1/2 thickness cover glass (Corning) to a SuperFrost Plus microscope slide (Electron Microscopy Sciences) with double sided tape. Before flow chamber assembly, cover glass was washed in 1 M HCl at 60°C for 1 hour and sonicated in 100% ethanol for 10 min to reduce nonspecific binding. […] In brief, flow chambers were functionalized by incubation with biotin-BSA (1 mg/ml; Sigma-Aldrich) for 3 min, followed by streptavidin (0.5 mg/ml) for a further 3 min. Taxol-stabilized microtubules were diluted 1:100 in motility assay buffer [30 mM Hepes (pH 7.4), 50 mM potassium acetate, 2 mM magnesium acetate, 1 mM EGTA, 10% glycerol, 1 mM DTT, and 20 μM Taxol] and incubated with the flow chamber for 3 min. Following incubation, the flow chambers with adhered microtubules were washed three times with LRRK2 buffer [20 mM Hepes (pH 7.4), 80 mM NaCl, 0.5 mM TCEP, 5% glycerol, 2.5 mM MgCl2, and 20 μM GDP] before incubation for 5 min with either LRRK2 buffer with DMSO or specified kinase inhibitors (0 nM LRRK2^RCKW) or LRRK2 buffer containing LRRK2^RCKW and DMSO or kinase inhibitors as indicated. In all cases, DMSO or the indicated kinase inhibitors were incubated with LRRK2 buffer in the presence or absence of LRRK2^RCKW for 10 min before addition and incubation within the flow chambers.
Data were blinded before analysis. Kymographs were generated from motility movies and quantified for percent motility using ImageJ V.2.14.0 as previously described ([22], [63]). Processive, diffusive, and nonmotile events were manually annotated for calculation of the percentage of processive events per microtubule. […] Single-molecule movements with multiple behaviors were counted as multiple events. For percentage motility per microtubule measurements, processive events were divided by total events (nonmotile, diffuse, and processive) per kymograph.
For statistical analysis, brightness and contrast were adjusted in ImageJ for all motility movies and kymographs. Statistical analyses were performed in GraphPad Prism 10 (www.graphpad.com/, RRID:SCR_002798). Specific statistical analysis descriptors, n values, and P values can be found in the corresponding figure legends. All TIRF experiments were analyzed from three independent technical replicates.

Turning to `Cc1ccc(-n2nc(C(C)(C)C)cc2NC(=O)Nc2cccc(-c3c[nH]c4nc(Cl)nc(N5CCOCC5)c34)c2)cc1` [Compound 30], the “rescue of kinesin motility in the presence of LRRK2^RCKW” value (“rescue of kinesin motility” below) is on record as “rescued kinesin motility”. Also, under “0nM RCKW, listed as RN277”, the “Raw data per microtubule (Figure 6c/6e, kinesin motility)” value (from here on “Raw data per microtubule”) is 85.8824 and 78.125 and 82.8829 and 82.3529 and 90 and 85.1064; the “Mean each experiment (Figure 6c/6e raw data, kinesin motility)” value (“Mean each experiment” for short) was 80.5039 and 86.1765 and 85.4944. Under “100nM RCKW, listed as RN277”, the “Raw data per microtubule” value was 94.0299 and 83.3333 and 78.0142 and 83.1325 and 78.4314 and 95.5556; the “Mean each experiment” value was 80.6738 and 80.7819 and 94.7927.

Turning to `Cc1ccc(C(=O)Nc2ccc(CN3CCN(C)CC3)c(C(F)(F)F)c2)cc1C#Cc1cnc2cccnn12` [Ponatinib, reference compound], the “rescue of kinesin motility” value is “rescued kinesin motility”. Where the note is “0nM RCKW”, the “Raw data per microtubule” value is 83.3333 and 79.7203 and 85.1562 and 84.9462 and 85.9649 and 81.3725; the “Mean each experiment” value was 82.4383 and 85.4556 and 82.3529. Where the note is “100nM RCKW”, the “Raw data per microtubule” value is 85.8491 and 82.7225 and 82.5758 and 84.8485 and 75 and 80.5556; the “Mean each experiment” value was 82.6491 and 79.9242 and 83.2023.

As for `CCSc1nc(NC)c2c(-c3cccc(NC(=O)Nc4cc(C(C)(C)C)nn4-c4ccc(C)cc4)c3)c[nH]c2n1` [Compound 32], the “rescue of kinesin motility” value is given as “rescued kinesin motility”. Also, under “0nM RCKW, listed as RN341”, the “Raw data per microtubule” value is 77.4648 and 83.4483 and 76.4045 and 86.4865 and 75.9259 and 86.2385; the “Mean each experiment” value is 79.9264 and 81.2062 and 81.8517. For the same compound, under “100nM RCKW, listed as RN341”, the “Raw data per microtubule” value is 76.0563 and 76.9912 and 82.5688 and 91.0891 and 75.8621 and 85.9155; the “Mean each experiment” value is 79.78 and 83.4756 and 80.9859.
